Measured values as given in patent US12152022B2, “N-[5-(aminosulfonyl)-4-methyl-1,3-thiazol-2-yl]-N-methyl-2-[4-(2-pyridinyl)-phenyl]-acetamide free base hemihydrate, methods of manufacture and uses thereof” (AiCuris Anti-Infective Cures GmbH, priority 2016, dated 2024).

Assays:
[1] = test system: herpes simplex virus; settings: compared with N-[5-(amino-sulfonyl)-4-methyl-1,3-thiazol-2-yl]-N-methyl-2-[4-(2-pyridinyl)phenyl]acetamide; cited from earlier work
[2] = Hygroscopicity / DVS water sorption; type: physicochemical; settings: for DVS: release and adsorption of water: 25° C., experiment time <600 min for Form C
Source text: FIG. 6A: weight vs. relative humidity, FIG. 6B: measurement over time.
(§1) The hemihydrate Form C was isolated on larger scale. The starting material for the screening (Form B) was a monohydrate. Additionally a potential dihydrate (form L) was identified. […] To extend the exposure to different relative humidity (RH) values small vials with solid/saturated solutions were loaded with an open pan of Form C on top and the sealed vials kept for 5 days (see the data below for different humidity levels).

[3] = Saturated solubility in individual excipients; type: physicochemical; settings: mean, n=3
Source text: Comparative Solubility of Free Base and Free Base Hemihydrate in Individual Excipients Saturated solubility (% w/w) of two forms of pritelivir (batches BXR2KVE for the free base and M023862-CA15-033 for pritelivir hemihydrate) in PEG 400 and propylene glycol, mean (range, n=3) are shown in Table 11 below.

[4] = Octanol/water partition coefficient; type: physicochemical; settings: 25° C.
Method: (§2) The physical characterization of the free base hemihydrate referred to herein was performed using compendial methods as per European Pharmacopoeia (Ph. Eur.) and/or the U.S.
(§3) The identified forms were then further characterized by several methods: XRPD, Optical microscopy, ^1H-NMR, DSC, TGA, and DVS. The physical characterization of the free base hemihydrate referred to herein was performed using compendial methods as per European Pharmacopoeia (Ph. Eur.) and/or the U.S. Pharmacopeial Convention (USP).
(§4) General properties of N-[5-(aminosulfonyl)-4-methyl-1,3-thiazol-2-yl]-N-methyl-2-[4-(2-pyridinyl)-phenyl]-acetamide hemihydrate Table 9: […]

[5] = pKa value by photometric titration; type: physicochemical
Method: as §2, §3, §4

[6] = Exposure of Form C to different relative humidity values, check by XRPD; type: physicochemical; settings: <5% to 100% RH, sealed vials, 5 days
Source text: as §1

[7] = test system: HSV-2; settings: once daily suppressive therapy; cited from earlier work

Which “IC50-values compared to pritelivir” value [1] does the source give for C[C@H](Cn1cnc2c(N)ncnc21)OCP(=O)(O)O [Tenofovir] here?
Its value is “significantly higher”.

With Cc1nc(N(C)C(=O)Cc2ccc(-c3ccccn3)cc2)sc1S(N)(=O)=O [pritelivir free base, N-[5-(aminosulfonyl)-4-methyl-1,3-thiazol-2-yl]-N-methyl-2-[4-(2-pyridinyl)-phenyl]-acetamide] as the compound, how does the “DVS: release and adsorption of water” value ([2]; listed as Form B) read?
Its value is “release and adsorb water more rapidly than Form C”.

What about the “Saturated solubility in PEG 400” value ([3]; PEG 400) of the same compound?
Its value is 3.30 % w/w.

What about the “Saturated solubility in PEG 400 (free base*)” value ([3]; PEG 400, column marked *, asterisk not explained) of the same compound?
Its value is 7.87 % w/w.

And the “Saturated solubility in propylene glycol” value ([3]; Propylene glycol)?
The value was 0.20 % w/w.

What about the “Saturated solubility in propylene glycol (free base*)” value ([3]; Propylene glycol, column marked *, asterisk not explained) of the same compound?
Its value is 2.84 % w/w.

With Cc1nc(N(C)C(=O)Cc2ccc(-c3ccccn3)cc2)sc1S(N)(=O)=O [pritelivir hemihydrate, N-[5-(aminosulfonyl)-4-methyl-1,3-thiazol-2-yl]-N-methyl-2-[4-(2-pyridinyl)-phenyl]-acetamide free base hemihydrate] as the compound, how does the logP [4] read?
The logP was -0.0405.

What about the “pKa value (photometric titration)” value [5] of the same compound?
Its value is 4.6.

What about the Hygroscopicity [2] of the same compound?
Its Hygroscopicity is “Not hygroscopic”.

And the “DVS: release and adsorption of water” value ([2]; hemihydrate)?
Its value is “almost no change”.

And the “Saturated solubility in PEG 400” value ([3]; PEG 400, hemihydrate)?
Its value is 7.87 % w/w.

And the “Saturated solubility in propylene glycol” value ([3]; Propylene glycol, hemihydrate)?
The value was 0.59 % w/w.

And the “Solid form by XRPD after humidity exposure” value [6]?
The value was “all samples confirmed to be Form C”.

For CC(C)[C@H](N)C(=O)OCCOCn1cnc2c(=O)[nH]c(N)nc21 [valacyclovir], which “Risk of transmission of genital herpes” value [7] is on record?
The value was “significantly reduces the risk of transmission”.
